Drawing on patent US11078193B2 (priority 2014, dated 2021), this text covers EC50 and CC50 for 28 compounds.

One data set relates to HBV. The data set is described as follows: anti HBV activity, HepG2.117 inducibly HBV producing cell line (Tet-off), intracellular HBV DNA by realtime PCR. In kind it is cell-based. To be noted: Hepatitis B virus, 72 h, HepG2.117 cells, 3 days of treatment.
The nature of data set [1]: Cytotoxicity, HepG2 cells, Resazurin assay. The class given is cell-based. To be noted: human. A general note: The colour change of resazurin is a common sign of viable cells or microbes.

For `C[C@@H](NS(=O)(=O)c1cn(C)c(C(=O)Nc2c(F)cnc(F)c2F)c1Cl)C(F)(F)F` [Compound 44, 3-chloro-1-methyl-4-[[(1R)-2,2,2-trifluoro-1-methyl-ethyl]sulfamoyl]-N-(2,3,5-trifluoro-4-pyridyl)pyrrole-2-carboxamide], the concentration for a half-maximal effect (EC50) with HBV came out at 640 nM. The same compound had a CC50 at 4 days in data set [1] above 25 µM.

Consider `C[C@H](CO)NS(=O)(=O)c1cn(C)c(C(=O)Nc2ccnc(Cl)c2)c1Cl` [Compound 89, 3-chloro-N-(2-chloro-4-pyridyl)-4-[[(1R)-2-hydroxy-1-methyl-ethyl]sulfamoyl]-1-methyl-pyrrole-2-carboxamide], for which it took 360 nM to reach a half-maximal effect in the data set with HBV (EC50). Also, the CC50 at 4 days in data set [1] was above 25 µM.

In the data set on HBV, `Cn1cc(S(=O)(=O)NC2(C(F)(F)F)CCOCC2)c(Cl)c1C(=O)Nc1ccnc(Cl)c1` [Compound 180, 3-chloro-N-(2-chloro-4-pyridyl)-1-methyl-4-[[4-(trifluoromethyl)tetrahydropyran-4-yl]sulfamoyl]pyrrole-2-carboxamide] gave an EC50 of 630 nM. This compound came in with a CC50 at 4 days in data set [1] above 25 µM.

For `C[C@@H](NS(=O)(=O)c1cc(C(=O)Nc2ccnc(C#N)c2)n(C)c1)C(C)(F)F` [Compound 101, N-(2-cyano-4-pyridyl)-4-[[(1R)-2,2-difluoro-1-methyl-propyl]sulfamoyl]-1-methyl-pyrrole-2-carboxamide], in the data set with HBV, the EC50 is 430 nM. The CC50 at 4 days in data set [1] was above 25 µM.

On to `Cc1cc(NC(=O)c2c(F)c(S(=O)(=O)NC3(C)CC(F)(F)C3)cn2C)cc(Cl)n1` [Compound 130, N-(2-chloro-6-methyl-4-pyridyl)-4-[(3,3-difluoro-1-methyl-cyclobutyl)sulfamoyl]-3-fluoro-1-methyl-pyrrole-2-carboxamide], for which the midpoint of the response in the data set with HBV, the EC50, lay at 60 nM. The same compound returned a CC50 at 4 days in data set [1] above 25 µM.

As to `Cn1cc(S(=O)(=O)NC2(C)CC(F)(F)C2)c(Cl)c1C(=O)Nc1ccnc(C(F)(F)F)c1` [Compound 66, 3-chloro-4-[(3,3-difluoro-1-methyl-cyclobutyl)sulfamoyl]-1-methyl-N-[2-(trifluoromethyl)-4-pyridyl]pyrrole-2-carboxamide], the response in the data set with HBV was half-maximal at 90 nM (EC50). In data set [1], this compound gave a CC50 at 4 days above 25 µM.

For `Cn1cc(S(=O)(=O)NC2(CF)CCC2)c(F)c1C(=O)Nc1ccnc(C(F)F)c1` [Compound 128, N-[2-(difluoromethyl)-4-pyridyl]-3-fluoro-4-[[1-(fluoromethyl)cyclobutyl]sulfamoyl]-1-methyl-pyrrole-2-carboxamide], the EC50 in the data set with HBV is 40 nM. The compound also showed a CC50 at 4 days in data set [1] above 25 µM.

For `CC[C@@H](C)NS(=O)(=O)c1cn(C)c(C(=O)Nc2ccnc(C#N)c2)c1F` [Compound 67], it took 30 nM to reach a half-maximal effect in the data set with HBV (EC50). This compound also gave a CC50 at 4 days in data set [1] above 25 µM.

As for `Cc1cc(NC(=O)c2c(F)c(S(=O)(=O)NC3(C(F)(F)F)CCC3)cn2C)cc(Br)n1` [Compound 164, N-(2-bromo-6-methyl-4-pyridyl)-3-fluoro-1-methyl-4-[[1-(trifluoromethyl)cyclobutyl]sulfamoyl]pyrrole-2-carboxamide], the EC50 in the data set on HBV was determined as 40 nM. In addition, in data set [1], the CC50 at 4 days is above 25 µM.

`CC[C@@H](C)NS(=O)(=O)c1cn(C)c(C(=O)Nc2ccnc(C(F)F)c2)c1F` [Compound 86, N-[2-(difluoromethyl)-4-pyridyl]-3-fluoro-1-methyl-4-[[(1R)-1-methylpropyl]sulfamoyl]pyrrole-2-carboxamide]: in the data set with HBV, the EC50 worked out at 40 nM. The same compound gave a CC50 at 4 days in data set [1] of 21.6 µM.

In the data set on HBV, `C[C@@H](NS(=O)(=O)c1cn(C)c(C(=O)Nc2ccnc(Cl)c2F)c1Cl)C(C)(F)F` [Compound 107, 3-chloro-N-(2-chloro-3-fluoro-4-pyridyl)-4-[[(1R)-2,2-difluoro-1-methyl-propyl]sulfamoyl]-1-methyl-pyrrole-2-carboxamide] returned an EC50 of 20 nM. Moreover, the CC50 at 4 days in data set [1] was above 25 µM.

`C[C@@H](NS(=O)(=O)c1cc(C(=O)Nc2ccnc(F)c2)n(C)c1)C(C)(F)F` [Compound 102, 4-[[(1R)-2,2-difluoro-1-methyl-propyl]sulfamoyl]-N-(2-fluoro-4-pyridyl)-1-methyl-pyrrole-2-carboxamide]: the EC50 with HBV was determined as 180 nM. In data set [1], this compound displayed a CC50 at 4 days above 25 µM.

As to `Cc1cc(NC(=O)c2c(Cl)c(S(=O)(=O)N[C@H](C)C(F)(F)F)cn2C)cc(C)n1` [Compound 144, 3-chloro-N-(2,6-dimethyl-4-pyridyl)-1-methyl-4-[[(1R)-2,2,2-trifluoro-1-methyl-ethyl]sulfamoyl]pyrrole-2-carboxamide], it took 300 nM to reach a half-maximal effect in the data set with HBV (EC50). The CC50 at 4 days in data set [1] was above 25 µM.

In the data set with HBV, `C[C@@H](NS(=O)(=O)c1cn(C)c(C(=O)Nc2c(F)c(F)nc(F)c2Cl)c1Cl)C(F)(F)F` [Compound 187, 3-chloro-N-(3-chloro-2,5,6-trifluoro-4-pyridyl)-1-methyl-4-[[(1R)-2,2,2-trifluoro-1-methyl-ethyl]sulfamoyl]pyrrole-2-carboxamide] gave an EC50 of 710 nM. In data set [1], this compound yielded a CC50 at 4 days above 25 µM.

On to `Cc1cc(NC(=O)c2c(Cl)c(S(=O)(=O)NC3(C)CC(F)(F)C3)cn2C)cc(F)n1` [Compound 163, 3-chloro-4-[(3,3-difluoro-1-methyl-cyclobutyl)sulfamoyl]-N-(2-fluoro-6-methyl-4-pyridyl)-1-methyl-pyrrole-2-carboxamide], for which, in the data set with HBV, the midpoint of the response, the EC50, lay at 20 nM. The compound further displayed a 50% cytotoxic concentration (CC50) at 4 days in data set [1] above 25 µM.

For the compound `C[C@@H](NS(=O)(=O)c1cn(C)c(C(=O)Nc2ccnc(C(C)(F)F)c2)c1Cl)C(F)(F)F` [Compound 182, 3-chloro-N-[2-(1,1-difluoroethyl)-4-pyridyl]-1-methyl-4-[[(1R)-2,2,2-trifluoro-1-methyl-ethyl]sulfamoyl]pyrrole-2-carboxamide], a half-maximal response with HBV (EC50) required 1300 nM. The same compound came in with a CC50 at 4 days in data set [1] above 25 µM.

In the data set with HBV, `Cc1cc(NC(=O)c2c(F)c(S(=O)(=O)NC3(C(F)(F)F)CCC3)cn2C)cc(C(F)F)n1` [Compound 173, N-[2-(difluoromethyl)-6-methyl-4-pyridyl]-3-fluoro-1-methyl-4-[[1-(trifluoromethyl)cyclobutyl]sulfamoyl]pyrrole-2-carboxamide] came in with an EC50 of 20 nM. Further, in data set [1], the CC50 at 4 days is above 25 µM.

`Cn1cc(S(=O)(=O)NC2(C)CC(F)(F)C2)c(F)c1C(=O)Nc1ccnc(C(F)(F)F)c1` [Compound 55, 4-[(3,3-difluoro-1-methyl-cyclobutyl)sulfamoyl]-3-fluoro-1-methyl-N-[2-(trifluoromethyl)-4-pyridyl]pyrrole-2-carboxamide] displayed an EC50 in the data set on HBV of 70 nM. In addition, in data set [1], the CC50 at 4 days is above 25 µM.

In the data set on HBV, `CC(O)C(C)NS(=O)(=O)c1cn(C)c(C(=O)Nc2ccnc(Cl)c2)c1Cl` (racemic) [Compound 90, (+/−)-3-chloro-N-(2-chloro-4-pyridyl)-4-[(2-hydroxy-1-methyl-propyl)sulfamoyl]-1-methyl-pyrrole-2-carboxamide] came in with an EC50 of 450 nM. Moreover, the CC50 at 4 days in data set [1] was above 25 µM.

`CC[C@@H](C)NS(=O)(=O)c1cn(C)c(C(=O)Nc2ccnc(C(F)(F)F)c2)c1F` [Compound 68, 3-fluoro-1-methyl-4-[[(1R)-1-methylpropyl]sulfamoyl]-N-[2-(trifluoromethyl)-4-pyridyl]pyrrole-2-carboxamide] displayed an EC50 with HBV of 50 nM. Moreover, the CC50 at 4 days in data set [1] was above 25 µM.

In the case of `C[C@@H](NS(=O)(=O)c1cn(C)c(C(=O)Nc2cc(C#N)ccn2)c1Cl)C(F)(F)F` [Compound 183, 3-chloro-N-(4-cyano-2-pyridyl)-1-methyl-4-[[(1R)-2,2,2-trifluoro-1-methyl-ethyl]sulfamoyl]pyrrole-2-carboxamide], the EC50 in the data set on HBV stood at 1400 nM. For the same compound, the CC50 at 4 days in data set [1] was above 25 µM.

Compound `Cn1cc(S(=O)(=O)NC2(C)CC(F)(F)C2)c(F)c1C(=O)Nc1ccnc(Cl)c1` [Compound 54, N-(2-chloro-4-pyridyl)-4-[(3,3-difluoro-1-methyl-cyclobutyl)sulfamoyl]-3-fluoro-1-methyl-pyrrole-2-carboxamide] had an EC50 with HBV of 20 nM. Further, the CC50 at 4 days in data set [1] is above 25 µM.

Compound `CC[C@H](NS(=O)(=O)c1cn(C)c(C(=O)Nc2ccnc(C(F)F)c2)c1Cl)C(F)(F)F` [Compound 84, 3-chloro-N-[2-(difluoromethyl)-4-pyridyl]-1-methyl-4-[[(1S)-1-(trifluoromethyl)propyl]sulfamoyl]pyrrole-2-carboxamide] yielded an EC50 in the data set with HBV of 110 nM. The compound also came in with a CC50 at 4 days in data set [1] above 25 µM.

As to `C[C@@H](NS(=O)(=O)c1cn(C)c(C(=O)Nc2ccc(F)nc2F)c1Cl)C(F)(F)F` [Compound 77, 3-chloro-N-(2,6-difluoro-3-pyridyl)-1-methyl-4-[[(1R)-2,2,2-trifluoro-1-methyl-ethyl]sulfamoyl]pyrrole-2-carboxamide], the EC50 in the data set with HBV worked out at 300 nM. In data set [1], the CC50 at 4 days is above 25 µM.

Regarding `CC[C@@H](C)NS(=O)(=O)c1cn(C)c(C(=O)Nc2ccnc(Cl)c2)c1Cl` [Compound 73, 3-chloro-N-(2-chloro-4-pyridyl)-1-methyl-[[(1R)-1-methylpropyl]-sulfamoyl]pyrrole-2-carboxamide], a half-maximal response with HBV (EC50) required 90 nM. Also, the CC50 at 4 days in data set [1] was 21.6 µM.

For the compound `Cn1cc(S(=O)(=O)NC2(C(F)(F)F)CCC2)c(F)c1C(=O)Nc1cc(Cl)nc(C#N)c1` [Compound 121, N-(2-chloro-6-cyano-4-pyridyl)-3-fluoro-1-methyl-4-[[1-(trifluoromethyl)cyclobutyl]sulfamoyl]pyrrole-2-carboxamide], the EC50 with HBV was 40 nM. The CC50 at 4 days in data set [1] was above 25 µM.

On to `Cn1cc(S(=O)(=O)NC2CCC2(F)F)c(F)c1C(=O)Nc1ccnc(C(F)F)c1` (centres unmarked) [Compound 127, 4-[(2,2-difluorocyclobutyl)sulfamoyl]-N-[2-(difluoromethyl)-4-pyridyl]-3-fluoro-1-methyl-pyrrole-2-carboxamide], for which a half-maximal response with HBV (EC50) required 50 nM. Moreover, the CC50 at 4 days in data set [1] was above 25 µM.

`Cn1cc(S(=O)(=O)NC2(C)CC(F)(F)C2)c(F)c1C(=O)Nc1ccnc(F)c1` [Compound 133, 4-[(3,3-difluoro-1-methyl-cyclobutyl)sulfamoyl]-3-fluoro-N-(2-fluoro-4-pyridyl)-1-methyl-pyrrole-2-carboxamide] registered an EC50 with HBV of 50 nM. Moreover, the CC50 at 4 days in data set [1] is above 25 µM.

One may read the EC50 as the midpoint of the concentration-response curve. In general, CC50 refers to the concentration that lowers cell viability or growth by half. A lower CC50 goes with harm at low concentration.
